PMC6358863, “Involvement of the Hydroperoxy Group in the Irreversible Inhibition of Leukocyte-Type 12-Lipoxygenase by Monoterpene Glycosides Contained in the Qing Shan Lu Shui Tea” (Molecules, 2019)
Where two headings read alike, the source gives them in different places. Values belong to the molecule of their own block, whether it stands above or below them.

How the values were obtained:
[1] = target: T1, leukocyte-type 12-lipoxygenase (Mus musculus, UniProt P39654); assay: leukocyte-type 12-lipoxygenase inhibition assay (arachidonic acid, HPLC quantification); type: biochemical; conditions: 25 μM arachidonic acid, 30 °C, 5 min; for inhibitory effect on leukocyte-type 12-lipoxygenase activity (in words): various concentrations (Figure 5)
T1 sequence (P39654 1-663): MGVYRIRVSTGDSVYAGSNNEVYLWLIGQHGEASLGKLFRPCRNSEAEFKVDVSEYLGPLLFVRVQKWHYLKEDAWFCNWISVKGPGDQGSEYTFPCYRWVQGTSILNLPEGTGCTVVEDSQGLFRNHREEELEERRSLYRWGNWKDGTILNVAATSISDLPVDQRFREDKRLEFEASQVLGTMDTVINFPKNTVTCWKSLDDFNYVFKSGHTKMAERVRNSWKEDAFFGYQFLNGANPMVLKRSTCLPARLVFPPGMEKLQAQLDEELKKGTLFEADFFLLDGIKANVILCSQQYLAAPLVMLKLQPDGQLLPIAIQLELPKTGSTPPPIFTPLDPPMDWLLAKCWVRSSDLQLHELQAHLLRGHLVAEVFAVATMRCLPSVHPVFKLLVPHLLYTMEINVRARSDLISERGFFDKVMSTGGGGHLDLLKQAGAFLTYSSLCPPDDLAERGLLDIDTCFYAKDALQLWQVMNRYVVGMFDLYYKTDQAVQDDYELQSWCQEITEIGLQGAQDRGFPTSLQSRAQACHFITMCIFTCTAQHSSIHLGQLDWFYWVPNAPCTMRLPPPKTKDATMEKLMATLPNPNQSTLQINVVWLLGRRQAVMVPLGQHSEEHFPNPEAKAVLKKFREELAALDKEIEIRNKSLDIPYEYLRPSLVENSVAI
Protocol: Figure 3 Inhibition of the leukocyte-type 12-lipoxygenase activity by liguroside C (closed circles) and liguroside D (open circles). Leukocyte-type 12-lipoxygenase was incubated with 25 μM arachidonic acid at 30 °C for 5 min in the standard reaction mixture, in the presence of inhibitors at various concentrations and the products were quantified using a reverse-phase HPLC. Relative enzyme activities, as compared with the activity without inhibitors, are shown.
Figure 5 Inhibition of the leukocyte-type 12-lipoxygenase activity by liguroside A (closed circles), kudingoside B (grey circles), kudingoside A (open circles), and lipedoside B-III (open lozenges). Leukocyte-type 12-lipoxygenase was incubated with 25 μM arachidonic acid, at 30 °C, for 5 min, in the standard reaction mixture in the presence of inhibitors, at various concentrations, and the products were quantified using a reverse-phase HPLC. Relative enzyme activities, as compared with the activity without inhibitors, are shown.
The lipoxygenase and cyclooxygenase reactions were carried out, as described previously. Briefly, leukocyte-type 12-lipoxygenase or 15-lipoxygenase-1 was preincubated with inhibitors, in a volume of 0.2 mL in 100 mM Tris-HCl buffer, at pH 7.4, for 5 min at 30 °C, and was then incubated with 25 μM arachidonic acid for 5 min at 30 °C. Platelet-type 12-lipoxygenase reaction was carried out the as same as leukocyte-type 12-lipoxygenase reaction, except for incubation condition of 30 min at 37 °C. 5-Lipoxygenase was preincubated in 100 mM Tris-HCl buffer at pH 7.4, 2 mM CaCl2, and 2 mM ATP, with inhibitors, for 5 min on ice and then incubated with 25 μM arachidonic acid, for 5 min at 30 °C. To reduce the metabolites of each lipoxygenase isozyme, we added glutathione peroxidase (0.1 unit) and 5 mM glutathione to the mixture, followed by incubation for another 20 min. The enzyme reactions of cyclooxygenase-1 and cyclooxygenase-2 were carried out, as described previously. Briefly, cyclooxygenase-1 and cyclooxygenase-2 were preincubated with inhibitors in a volume of 0.2 mL in 100 mM Tris-HCl buffer at pH 7.4, 2 μM hematin, and 5 mM tryptophan, for 5 min at 24 °C, and then incubated with 25 μM […], for 5 min at 24 °C. After the reaction was quenched by an addition of 50 mM HCl, 0.5 nmol of 15-HEDE were added as an internal standard for enzyme reactions. The products extracted with ice-cold diethyl ether were analyzed by a reverse-phase HPLC, using a Waters Alliance system equipped with a COSMOSIL 5C18-MS-II column (5-μm particle, 250 × 4.6 mm i.d., Nacalai), with a solvent system of methanol-water-acetic acid (80:20:0.01, v/v), at a flow rate of 1 mL/min, as previously described. Absorption at 235 nm was continuously monitored, using a Waters 2489 UV/Visible detector (Waters, Milford, MA, USA). Protein concentration was determined using a bicinchoninic acid protein assay kit (Thermo Fisher Scientific, Waltham, MA, USA), with bovine serum albumin as a standard.

[2] = target: T1, leukocyte-type 12-lipoxygenase; set-up: method as in PMID 23579993; conditions: cited from earlier work
[3] = target: T1, leukocyte-type 12-lipoxygenase; assay: reversibility analysis of leukocyte-type 12-lipoxygenase inhibition (preincubation, 200-fold dilution); type: biochemical
Protocol: The preincubation mixture was 200-fold diluted 0, 5, 15, and 30 min, before starting the enzyme reaction under the standard condition for the lipoxygenase assay. […] On the other hands, tested ligurosides inhibited the leukocyte-type 12-lipoxygenase activity, even after 30 min, indicating an irreversible inhibition of the enzyme activity (Figure 4). Figure 4 Reversibility analysis of the leukocyte-type 12-lipoxygenase inhibition. The leukocyte-type 12-lipoxygenase was preincubated with 6 μM quercetin, liguroside A, liguroside C, and liguroside D, at 30 °C, for 5 min, and then the mixture was 200-fold diluted in the standard lipoxygenase reaction mixture. After 0, 5, 15, and 30 min, the mixtures were incubated with 25 μM arachidonic acid at 30 °C, for 5 min. […] The products extracted with ice-cold diethyl ether were analyzed by a reverse-phase HPLC, using a Waters Alliance system equipped with a COSMOSIL 5C18-MS-II column (5-μm particle, 250 × 4.6 mm i.d., Nacalai), with a solvent system of methanol-water-acetic acid (80:20:0.01, v/v), at a flow rate of 1 mL/min, as previously described. Absorption at 235 nm was continuously monitored, using a Waters 2489 UV/Visible detector (Waters, Milford, MA, USA). Protein concentration was determined using a bicinchoninic acid protein assay kit (Thermo Fisher Scientific, Waltham, MA, USA), with bovine serum albumin as a standard.

SMILES: C/C(=C\CO[C@@H]1O[C@H](CO)[C@@H](OC(=O)/C=C/c2ccc(O)cc2)[C@H](O[C@@H]2O[C@@H](C)[C@H](O)[C@@H](O)[C@H]2O)[C@H]1O)C/C=C/C(C)(C)O [kudingoside B]
- inhibitory effect on leukocyte-type 12-lipoxygenase activity (in words) [1]: lower inhibitory effect

SMILES: C/C(=C\CO[C@@H]1O[C@H](CO)[C@@H](OC(=O)/C=C\c2ccc(O)cc2)[C@H](O[C@@H]2O[C@@H](C)[C@H](O)[C@@H](O)[C@H]2O)[C@H]1O)C/C=C/C(C)(C)OO [liguroside B]
- IC50 ([2]; previous report, read-out: IC50, inhibition of leukocyte-type 12-lipoxygenase activity): 0.7 µM

SMILES: C=CC(C)(CCC=C(C)C)O[C@@H]1O[C@H](CO)[C@@H](OC(=O)/C=C/c2ccc(O)cc2)[C@H](O[C@@H]2O[C@@H](C)[C@H](O)[C@@H](O)[C@H]2O)[C@H]1O (stereo partly drawn) [lipedoside B-III]
- inhibitory effect on leukocyte-type 12-lipoxygenase activity (in words) [1]: did not inhibit

SMILES: O=C(O)C=Cc1ccc(O)cc1 [p-Coumaric acid, reference compound]
- inhibition of leukocyte-type 12-lipoxygenase activity (in words) [2]: no inhibition

SMILES: O=c1c(O)c(-c2ccc(O)c(O)c2)oc2cc(O)cc(O)c12 [quercetin]
- inhibition of leukocyte-type 12-lipoxygenase activity at 6 μM (in words) ([3]; preincubated 5 min with 6 μM, no dilution): almost completely inhibited
- reversibility of leukocyte-type 12-lipoxygenase inhibition after dilution ([3]; preincubation 6 μM 5 min at 30 °C, 200-fold dilution, 0, 5, 15 and 30 min before reaction): quickly recovered

Results, then the molecule that gave them:

- inhibitory effect on leukocyte-type 12-lipoxygenase activity (in words) [1]: did not inhibit
SMILES: CC(C)=CCC/C(C)=C/CO[C@@H]1O[C@H](CO)[C@@H](OC(=O)/C=C/c2ccc(O)cc2)[C@H](O[C@@H]2O[C@@H](C)[C@H](O)[C@@H](O)[C@H]2O)[C@H]1O [kudingoside A]

- IC50 [1]: 2.9 µM
SMILES: C=CC(C)(C/C=C/C(C)(C)OO)O[C@@H]1O[C@H](CO)[C@@H](OC(=O)/C=C/c2ccc(O)cc2)[C@H](O[C@@H]2O[C@@H](C)[C@H](O)[C@@H](O)[C@H]2O)[C@H]1O (stereo partly drawn) [liguroside C, (5E)-7-hydroperoxy-3,7-dimethyl-1,5-octadienyl-3-O-(α-L-rhamnopyranosyl)-(1′′→3′)-(4′′′-O-trans-p-coumaroyl)-β-D-glucopyranoside]

- IC50 [1]: 4.2 µM
SMILES: C=C(C)C(CC/C(C)=C/CO[C@@H]1O[C@H](CO)[C@@H](OC(=O)/C=C/c2ccc(O)cc2)[C@H](O[C@@H]2O[C@@H](C)[C@H](O)[C@@H](O)[C@H]2O)[C@H]1O)OO (stereo partly drawn) [liguroside D]
